Assay results reported in patent US9346761B2, “Arginine methyltransferase inhibitors and uses thereof” (Epizyme, Inc., priority 2013, dated 2016).
Like-named read-outs stand apart in the source and are kept apart here.

Tests used:
[1] = system: mono-methyl arginine in RKO cells; experiment: RKO methylation assay, In Cell Western for mono-methyl arginine and DNA content; type: cell-based; conditions: Homo sapiens
Full-length human PRMT6 = target: T1, Full-length human PRMT6 (Homo sapiens, UniProt Q96LA8); experiment: PRMT6 biochemical assay (3H-SAM Flashplate, peptide substrate)
T1 construct: Flag-PRMT6-His was eluted with 200 ug/ml FLAG peptide in the same buffer; made in house; host or cells: HEK 293F cells (BacMam virus, pFastBacMam)
T1 sequence (Q96LA8 with tags, fused parts or gaps): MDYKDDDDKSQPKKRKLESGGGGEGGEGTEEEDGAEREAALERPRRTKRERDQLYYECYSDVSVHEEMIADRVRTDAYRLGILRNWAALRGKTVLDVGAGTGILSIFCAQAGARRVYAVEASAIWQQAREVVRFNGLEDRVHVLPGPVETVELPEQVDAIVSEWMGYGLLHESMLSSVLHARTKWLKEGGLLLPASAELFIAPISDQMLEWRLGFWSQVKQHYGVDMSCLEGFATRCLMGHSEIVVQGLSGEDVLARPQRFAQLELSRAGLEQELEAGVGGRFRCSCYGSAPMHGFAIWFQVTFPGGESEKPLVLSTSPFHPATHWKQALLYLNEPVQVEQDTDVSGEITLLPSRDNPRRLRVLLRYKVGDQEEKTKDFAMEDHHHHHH
Summary of the method: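 Read-out is 3H-methylated histone H4 (36-50) peptide bound to streptavidin Flashplates after a cold-SAM stop. Baculovirus-expressed Flag-PRMT6-His met compound for 30 min at room temperature before SAM and peptide; Bicine pH 7.6 buffer. IC50 fitted to % inhibition normalized to SAH (min) and DMSO (max).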

[2] = In Cell Western, RKO cells, 72 hours, percent activation of mono-methyl arginine signal, read-out: EC30

| SMILES | EC30 [1, 2] | IC50 (Full-length human PRMT6) | EC30 ([1]; RKO, 72 h) |
| --- | --- | --- | --- |
| CN(CCN)Cc1c[nH]nc1-c1cccc(Cl)c1F [Compound 123] | < 3000 nM | < 100 nM |  |
| COCCn1ncc(CN(C)CCN)c1-c1ccc(F)cc1 [Compound 6] | > 12000 nM | 101 to 1000 nM |  |
| CCNC(=O)c1ccc(-c2n[nH]cc2CN(C)CCN)cc1 [Compound 136] | > 12000 nM | < 100 nM |  |
| COc1cc(F)ccc1-c1n[nH]cc1CN(C)CCN [Compound 151] | 3010 to 12000 nM | 101 to 1000 nM |  |
| Cc1cc(Cl)ccc1-c1n[nH]cc1CN(C)CCN [Compound 133] | < 3000 nM | < 100 nM |  |
| CN(CCN)Cc1c[nH]nc1-c1cccc(N(C)C)c1 [Compound 149] | 3010 to 12000 nM | < 100 nM |  |
| Cc1ccc(-c2n[nH]cc2CN(C)CCN)cc1 [Compound 162] | < 3000 nM | < 100 nM |  |
| Cc1cc(F)ccc1-c1n[nH]cc1CN(C)CCN [Compound 152] | 3010 to 12000 nM | < 100 nM |  |
| CN(CCN)Cc1c[nH]nc1-c1ccc(C(F)(F)F)cc1Cl [Compound 135] | 3010 to 12000 nM | < 100 nM |  |
| CN(CCN)Cc1c[nH]nc1-c1cc(F)cc(Cl)c1 [Compound 121] | < 3000 nM | < 100 nM |  |
| CN(CCN)Cc1c[nH]nc1-c1ccc(C2CCOCC2)cc1 [Compound 98] | < 3000 nM | < 100 nM |  |
| COc1cc(Cl)cc(-c2n[nH]cc2CN(C)CCN)c1 [Compound 127] | 3010 to 12000 nM | < 100 nM |  |
| CN(CCN)Cc1c[nH]nc1-c1ccc(OC2CC2)cc1 [Compound 114] | < 3000 nM | < 100 nM |  |
| CN(CCN)Cc1n[nH]cc1-c1ccc(Cl)cc1 [Compound 102] | < 3000 nM | < 100 nM |  |
| CC(C)Cc1ccc(-c2c[nH]nc2CN(C)CCN)cc1 [Compound 170] | < 3000 nM | < 100 nM |  |
| Cc1c(F)cccc1-c1n[nH]cc1CN(C)CCN [Compound 129] | 3010 to 12000 nM | < 100 nM |  |
| CN(CCN)Cc1n[nH]cc1-c1ccc(OC2CC2)cc1 [Compound 119] | 3010 to 12000 nM | < 100 nM |  |
| CN(CCN)Cc1c[nH]nc1-c1cc(Cl)cc(Cl)c1 [Compound 137] | 3010 to 12000 nM | < 100 nM |  |
| Cc1cc(C#N)ccc1-c1n[nH]cc1CN(C)CCN [Compound 110] | > 12000 nM | < 100 nM |  |
| CN(CCN)Cc1n[nH]cc1-c1ccc(OC(F)(F)F)cc1 [Compound 105] | < 3000 nM | < 100 nM |  |
| CCOc1ccc(-c2n[nH]cc2CN(C)CCN)cc1 [Compound 166] | < 3000 nM | < 100 nM |  |
| CN(CCN)Cc1c[nH]nc1-c1ccc(C(F)(F)F)c(Cl)c1 [Compound 117] | < 3000 nM | < 100 nM |  |
| CN(CCN)Cc1n[nH]cc1-c1ccc(C(F)(F)F)cc1 [Compound 103] | 3010 to 12000 nM | < 100 nM |  |
| COc1ccc(-c2n[nH]cc2CN(C)CCN)cc1Cl [Compound 125] |  | < 100 nM | < 3000 nM |

| SMILES | EC30 [1, 2] | IC50 (Full-length human PRMT6) | EC30 ([1]; RKO, 72 h) |
| --- | --- | --- | --- |
| CCn1cc(CN(C)CCNC)c(-c2ccc(F)cc2)n1 [Compound 8] | > 12000 nM | 101 to 1000 nM |  |
| CC(C)Oc1ccc(-c2n[nH]cc2CN(C)CCN)cc1F [Compound 97] |  | < 100 nM | < 3000 nM |
| CN(CCN)Cc1c[nH]nc1-c1ccc(F)cc1F [Compound 99] | 3010 to 12000 nM | < 100 nM |  |
| CN(CCN)Cc1n[nH]cc1-c1ccc(C2CCOCC2)cc1 [Compound 145] | < 3000 nM | < 100 nM |  |
| Cc1ccc(C#N)cc1-c1n[nH]cc1CN(C)CCN [Compound 158] | > 12000 nM | 101 to 1000 nM |  |
| CC(C)Oc1ccc(-c2c[nH]nc2CN(C)CCN)cc1F [Compound 144] | < 3000 nM | < 100 nM |  |
| CN(CCN)Cc1c[nH]nc1-c1ccc(C(F)(F)F)c(F)c1 [Compound 141] | < 3000 nM | < 100 nM |  |
| CCOC(=O)c1cccc(-c2n[nH]cc2CN(C)CCN)c1 [Compound 150] | 3010 to 12000 nM | < 100 nM |  |
| CN(CCN)Cc1c[nH]nc1-c1ccc(Cl)cc1F [Compound 132] |  | < 100 nM | < 3000 nM |
| CN(CCN)Cc1c[nH]nc1-c1cccc(Cl)c1 [Compound 122] | 3010 to 12000 nM | < 100 nM |  |
| Cc1ccc(-c2n[nH]cc2CN(C)CCN)c(F)c1 [Compound 108] | > 12000 nM | < 100 nM |  |
| COc1ccc(Cl)cc1-c1n[nH]cc1CN(C)CCN [Compound 157] | > 12000 nM | 101 to 1000 nM |  |
| CN(CCN)Cc1c[nH]nc1-c1ccc(OCCN2CCOCC2)cc1 [Compound 172] | > 12000 nM | < 100 nM |  |
| CN(CCN)Cc1c[nH]nc1-c1ccccc1C#N [Compound 140] | > 12000 nM | 1010 to 3000 nM |  |
| NCCN(CCO)Cc1c[nH]nc1-c1ccc(F)cc1 [Compound 171] | > 12000 nM | 1010 to 3000 nM |  |
| CC(C)CN(C)C(=O)c1ccc(-c2n[nH]cc2CN(C)CCN)cc1 [Compound 164] | > 12000 nM | < 100 nM |  |
| CC(O)c1ccc(-c2n[nH]cc2CN(C)CCN)cc1 (stereo not shown) [Compound 115] | > 12000 nM | < 100 nM |  |
| COc1ccc(-c2n[nH]cc2CN(C)CCN)cc1 [Compound 153] | < 3000 nM | < 100 nM |  |
| CC(C)c1ccc(-c2c[nH]nc2CN(C)CCN)cc1 [Compound 101] |  | 101 to 1000 nM | 3010 to 12000 nM |
| CN(CCN)Cc1c[nH]nc1-c1ccc(Cl)c(F)c1 [Compound 118] | < 3000 nM | < 100 nM |  |
| CN(CCN)Cc1n[nH]cc1-c1ccc(OC(F)F)cc1 [Compound 138] | < 3000 nM | < 100 nM |  |
| COc1cc(-c2n[nH]cc2CN(C)CCN)ccc1F [Compound 142] | < 3000 nM | < 100 nM |  |
| COc1ccccc1-c1n[nH]cc1CN(C)CCN [Compound 109] | > 12000 nM | 101 to 1000 nM |  |
